The test concerns PKC. The test is described as follows: PKC activity of primary human mesothelial cells. The test is classed as cell-based. Particulars: human mesothelial cells exposed to vitamin E, low or high (150 mM) glucose, presence or absence of PMA (FIG. 2). On the procedure: The PKC activity was determined in the presence or absence or PMA, an activator of PKC. […] The mesothelial cells were exposed to low or high (150 mM) levels of glucose in the presence or absence of PMA, an activator of PKC, and the presence or absence of vitamin E, a PKC inhibitor. […] The PKC activity was determined in the presence or absence or PMA, an activator of PKC. […] These concentrations of glucose are standard for dialysis. […] It has been reported that activation of these pathways increases fibrosis. […] Therefore, inhibition of PKC can decrease fibrosis and reduce or prevent permeability failure of the peritoneal membrane.

Take vitamin E: the PKC activity result is given as “decrease of PKC activity”.

The values are drawn from patent publication US20050020662A1, “Inhibition of PKC to treat permability failure” (Joslin Diabetes Center, Inc., a Massachusetts corporation, priority 1999, published 2005).
